Assay [1] has as its target T1, human H3 receptor (Homo sapiens, UniProt Q9Y5N1).
T1 construct: expressed in transfected cells
The experiment in a line: Cyclic AMP accumulation (β-galactosidase reporter, Schild analysis). It counts as cell-based. Conditions: histamine agonist, forskolin 5 μM, Schild regression of pEC50 values. As for the experimental part:
Sublines of SK-N-MC cells were created that expressed a reporter construct and the human H3 receptor. The reporter gene (β-galactosidase) is under the control of multiple cyclic AMP responsive elements. In 96-well plates, histamine was added directly to the cell media followed 5 min later by an addition of forskolin (5 μM final concentration). When appropriate, antagonists were added 10 min prior to agonist addition. After a 6-h incubation at 37° C., the media was aspirated and the cells washed with 200 μL of phosphate-buffered saline followed by a second aspiration. Cells were lysed with 25 μL 0.1× assay buffer (10 mM Na-phosphate, pH 8, 0.2 mM MgSO4, 0.01 mM MnCl2) and incubated at rt for 10 min. […] Color was developed using 25 μL of 1 mg/mL substrate solution (chlorophenolred β-D galactopyranoside; Roche Molecular Biochemicals, Indianapolis, In.).

The target in assay [2] is T1, human H3 receptor. The experiment in a line: H3 receptor binding (N-[3H]-α-methylhistamine displacement). The following applies: membranes of SK-N-MC cells expressing cloned human H3 receptor, 0.8 nM N-[3H]-α-methylhistamine, 60 min at 25° C.
The target of assay [3] is T2, Rat SERT (Rattus norvegicus, UniProt P31652).
T2 construct: A rat brain without cerebellum (Zivic Laboratories, Inc.—Pittsburgh, Pa.) was homogenized; tissue Zivic Laboratories, Inc; host or cells: rat brain without cerebellum, membranes
The experiment in a line: Rat brain SERT binding ([3H]-citalopram displacement). Conditions: rat brain membranes without cerebellum, 0.6 nM [3H]-citalopram, 60 min at 25° C. The procedure:
The supernatant was removed and re-centrifuged at 15,000 rpm for 30 min. […] Membranes were incubated with 0.6 nM [^3H]-Citalopram plus/minus test compounds for 60 min at 25° C. and harvested by rapid filtration over GF/C glass fiber filters (pretreated with 0.3% polyethylenimine) followed by four washes with ice-cold buffer.

In assay [4] the target is T3, human SERT (Homo sapiens, UniProt P31645).
T3 construct: expressed in transfected cells; host or cells: HEK293 membranes
In words: Human SERT binding (3H-citalopram displacement). The following applies: HEK293 membranes expressing human SERT, rt 1 h. As for the experimental part:
Homogenized HEK293 (Human Embryonic Kidney) membranes expressing the human SERT were incubated with ^3H-citalopram (SERT) at rt for 1 h in 50 mM Tris, 120 mM NaCl, 5 mM KCl (pH 7.4). […] The membranes were washed and the radioactivity was counted as above.

Where [5] appears, read: SK-N-MC cells expressing human H3 receptor and CRE-β-galactosidase reporter, read-out: pA2 (converted).

Each structure is given as a SMILES string. Like-named read-outs stand apart in the source and are kept apart here.

T3 sequence (P31645 whole entry): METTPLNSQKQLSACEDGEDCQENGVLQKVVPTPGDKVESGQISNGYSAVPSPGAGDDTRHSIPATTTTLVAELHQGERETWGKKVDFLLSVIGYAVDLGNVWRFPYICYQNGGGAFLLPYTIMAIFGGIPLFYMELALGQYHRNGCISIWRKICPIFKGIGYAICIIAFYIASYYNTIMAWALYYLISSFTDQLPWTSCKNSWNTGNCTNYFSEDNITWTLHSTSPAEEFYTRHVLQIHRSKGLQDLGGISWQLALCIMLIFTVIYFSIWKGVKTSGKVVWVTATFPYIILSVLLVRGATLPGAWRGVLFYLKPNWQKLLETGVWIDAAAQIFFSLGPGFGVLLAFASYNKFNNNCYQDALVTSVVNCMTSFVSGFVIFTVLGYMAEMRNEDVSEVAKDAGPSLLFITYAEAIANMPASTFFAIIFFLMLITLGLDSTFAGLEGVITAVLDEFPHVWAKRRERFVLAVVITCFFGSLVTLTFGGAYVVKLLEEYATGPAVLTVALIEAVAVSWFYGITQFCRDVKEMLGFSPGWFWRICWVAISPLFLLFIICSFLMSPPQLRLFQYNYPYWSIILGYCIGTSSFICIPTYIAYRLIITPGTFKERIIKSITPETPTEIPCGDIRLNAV
T2 sequence (P31652 whole entry): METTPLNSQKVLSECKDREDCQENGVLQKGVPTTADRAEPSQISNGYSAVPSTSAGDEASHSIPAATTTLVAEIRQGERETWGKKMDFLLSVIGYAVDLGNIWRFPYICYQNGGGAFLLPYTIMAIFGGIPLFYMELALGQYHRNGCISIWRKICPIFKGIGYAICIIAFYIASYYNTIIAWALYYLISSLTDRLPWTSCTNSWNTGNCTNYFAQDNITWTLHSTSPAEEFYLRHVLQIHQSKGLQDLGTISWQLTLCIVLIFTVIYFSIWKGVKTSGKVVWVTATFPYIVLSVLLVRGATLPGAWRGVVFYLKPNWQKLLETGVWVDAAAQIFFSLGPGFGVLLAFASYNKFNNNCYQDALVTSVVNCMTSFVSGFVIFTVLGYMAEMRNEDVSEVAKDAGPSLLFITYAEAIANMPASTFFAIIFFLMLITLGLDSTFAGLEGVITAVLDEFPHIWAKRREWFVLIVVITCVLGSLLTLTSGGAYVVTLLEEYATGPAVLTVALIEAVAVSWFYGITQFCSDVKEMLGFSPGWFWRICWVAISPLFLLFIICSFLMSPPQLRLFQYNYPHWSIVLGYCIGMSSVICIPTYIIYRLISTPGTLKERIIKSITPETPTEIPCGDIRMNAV
T1 sequence (Q9Y5N1 whole entry): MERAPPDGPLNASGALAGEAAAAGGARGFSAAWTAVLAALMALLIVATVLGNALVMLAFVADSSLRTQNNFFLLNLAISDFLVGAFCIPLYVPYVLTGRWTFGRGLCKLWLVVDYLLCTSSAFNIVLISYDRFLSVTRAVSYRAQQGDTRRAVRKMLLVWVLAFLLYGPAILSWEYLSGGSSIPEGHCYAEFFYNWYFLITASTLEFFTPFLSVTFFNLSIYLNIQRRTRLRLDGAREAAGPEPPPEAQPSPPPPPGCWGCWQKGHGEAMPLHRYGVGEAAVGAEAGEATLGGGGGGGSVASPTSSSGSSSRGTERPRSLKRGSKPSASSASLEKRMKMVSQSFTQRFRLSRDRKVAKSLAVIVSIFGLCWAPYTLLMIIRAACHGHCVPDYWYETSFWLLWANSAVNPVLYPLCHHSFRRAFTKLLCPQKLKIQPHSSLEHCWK

For the compound `CSc1ccc(C2CN(C)Cc3cc(OCC4CN(C(C)C)CCO4)ccc32)cc1` (mixture of isomers) [Example 262, 7-(4-Isopropyl-morpholin-2-ylmethoxy)-2-methyl-4-(4-methylsulfanyl-phenyl)-1,2,3,4-tetrahydro-isoquinoline], in assay [1] (setting [5]), the Kb was 6.31 nM. The Ki in assay [2] turned out to be 10 nM; in assay [3] (read-out: Rat SERT Ki), 5 nM.

Consider `CSc1ccc(C2CN(C)Cc3cc(OCC4CN(C5CC5)CCO4)ccc32)cc1` (mixture of isomers) [Example 263, 7-(4-Cyclopropyl-morpholin-2-ylmethoxy)-2-methyl-4-(4-methylsulfanyl-phenyl)-1,2,3,4-tetrahydro-isoquinoline], for which the Kb in assay [1] (setting [5]) is 7.94 nM. The Ki in assay [2] and in assay [3] (read-out: Rat SERT Ki) was 11 nM each time.

Turning to `CN1Cc2cc(OCCCN3CCOCC3)ccc2C(c2ccc([S+](C)[O-])cc2)C1` (single isomer, unassigned) [Example 165A, 4-(4-Methanesulfinyl-phenyl)-2-methyl-7-(3-morpholin-4-yl-propoxy)-1,2,3,4-tetrahydro-isoquinoline], the Kb in assay [1] (setting [5]) was 3.16 nM. For the same compound, the Ki in assay [2] is 2 nM; in assay [3] (read-out: Rat SERT Ki), 91 nM.

On to `COc1ccc(C2CN(C)Cc3cc(OC[C@H]4CN(C(C)C)CCO4)ccc32)cc1` (single isomer, unassigned) [Example 256A, 7-(4-Isopropyl-morpholin-2R-ylmethoxy)-4-(4-methoxy-phenyl)-2-methyl-1,2,3,4-tetrahydro-isoquinoline], for which the Kb in assay [1] (setting [5]) was 5.01 nM. The Ki in assay [2] was 7 nM; in assay [3] (read-out: Rat SERT Ki) it was 12 nM.

In the case of `COc1ccc(C2CN(C)Cc3cc(OC[C@@H]4CN(C5CC5)CCO4)ccc32)cc1` (single isomer, unassigned) [Example 260A, 7-(4-Cyclopropyl-morpholin-2S-ylmethoxy)-4-(4-methoxy-phenyl)-2-methyl-1,2,3,4-tetrahydro-isoquinoline], in assay [1] (setting [5]), the Kb is 1 nM. For the same compound, the values for the Ki in assay [2] and in assay [3] (read-out: Rat SERT Ki) were 2 nM and 17 nM, respectively.

In assay [1] (pA2, SK-N-MC cells expressing human H3 receptor and CRE-β-galactosidase reporter), `CN1Cc2cc(OCCCN3CCC(F)CC3)ccc2C(c2cc(Cl)ccc2Cl)C1` (stereo not drawn) [Example 55, 4-(2,5-Dichloro-phenyl)-7-[3-(4-fluoro-piperidin-1-yl)-propoxy]-2-methyl-1,2,3,4-tetrahydro-isoquinoline] had a Kb of 5.01 nM. The figures for the Ki in assay [2] and in assay [3] (Rat SERT Ki (nM)) were 8 nM and 209 nM, respectively.

Turning to `CN1Cc2cc(OCCCN3CCC(F)CC3)ccc2C(c2ccc(Cl)c(Cl)c2)C1` (stereo not drawn) [Example 58, 4-(3,4-Dichloro-phenyl)-7-[3-(4-fluoro-piperidin-1-yl)-propoxy]-2-methyl-1,2,3,4-tetrahydro-isoquinoline], the Kb in assay [1] (setting [5]) is 31.6 nM. In addition, the Ki amounted to 9 nM in assay [2] and 8 nM in assay [3] (read-out: Rat SERT Ki).

As to `CSc1ccc(C2CN(C)Cc3cc(OCCCN4CCOC[C@@H]4C)ccc32)cc1` (stereo partly drawn) [Example 215, 2-Methyl-7-[3-(3S-methyl-morpholin-4-yl)-propoxy]-4-(4-methylsulfanyl-phenyl)-1,2,3,4-tetrahydro-isoquinoline], the Ki in assay [2] is 5 nM; in assay [4] it was 5 nM; in assay [3] (read-out: Rat SERT Ki), 1 nM.

Turning to `CSc1ccc(C2CN(C)Cc3cc(OCCCN4CCC(F)(F)CC4)ccc32)cc1` (stereo not drawn) [Example 216, 7-[3-(4,4-Difluoro-piperidin-1-yl)-propoxy]-2-methyl-4-(4-methylsulfanyl-phenyl)-1,2,3,4-tetrahydro-isoquinoline], the Ki in assay [2] was determined as 22 nM; in assay [4] it was 8 nM; in assay [3] (read-out: Rat SERT Ki), 4 nM.

Turning to `COc1ccc(C2CN(C)Cc3cc(OCCCN4CCOC[C@@H]4C)ccc32)c(F)c1` (stereo partly drawn) [Example 220, 4-(2-Fluoro-4-methoxy-phenyl)-2-methyl-7-[3-(3S-methyl-morpholin-4-yl)-propoxy]-1,2,3,4-tetrahydro-isoquinoline], the Ki was found to be 6 nM in assay [2], 12 nM in assay [4] and 4 nM in assay [3] (read-out: Rat SERT Ki).

On to `CN1Cc2cc(OCCCN3CCCCC3)ccc2C(c2ccc(OC(F)(F)F)cc2)C1` (stereo not drawn) [Example 222, 2-Methyl-7-(3-piperidin-1-yl-propoxy)-4-(4-trifluoromethoxy-phenyl)-1,2,3,4-tetrahydro-isoquinoline], for which the Ki in assay [2] came to 30 nM; in assay [4], 18 nM; in assay [3] (read-out: Rat SERT Ki), 30 nM.

In the case of `CSc1ccc(C2CN(C)Cc3cc(OC4CCN(C)CC4)ccc32)cc1` (stereo not drawn) [Example 243, 2-Methyl-7-(1-methyl-piperidin-4-yloxy)-4-(4-methylsulfanyl-phenyl)-1,2,3,4-tetrahydro-isoquinoline], the Ki in assay [2] is 22 nM; in assay [4] it was 6 nM; in assay [3] (read-out: Rat SERT Ki) it was 5 nM.

Consider `CSc1ccc(C2CN(C)Cc3cc(OC4CCN(C5CC5)CC4)ccc32)cc1` (stereo not drawn) [Example 247, 7-(1-Cyclopropyl-piperidin-4-yloxy)-2-methyl-4-(4-methylsulfanyl-phenyl)-1,2,3,4-tetrahydro-isoquinoline], for which the Ki came to 2 nM in assay [2], 7 nM in assay [4] and 5 nM in assay [3] (read-out: Rat SERT Ki).

Take `COc1ccc(C2CN(C)Cc3cc(OCC4CN(C(C)C)CCO4)ccc32)cc1` (stereo not drawn) [Example 254, 7-(4-Isopropyl-morpholin-2-ylmethoxy)-4-(4-methoxy-phenyl)-2-methyl-1,2,3,4-tetrahydro-isoquinoline]: the Ki in assay [2] came out at 9 nM; in assay [4] it was 7 nM; in assay [3] (read-out: Rat SERT Ki), 9 nM.

Take `COc1ccc(C2CN(C)Cc3cc(C#CCCN4CCC(F)(F)CC4)ccc32)cc1` (stereo not drawn) [Example 274, 7-[4-(4,4-Difluoro-piperidin-1-yl)-but-1-ynyl]-4-(4-methoxy-phenyl)-2-methyl-1,2,3,4-tetrahydro-isoquinoline]: the Ki was 65 nM in assay [2], 27 nM in assay [4] and 14 nM in assay [3] (read-out: Rat SERT Ki).

Regarding `COc1ccc(C2CN(C)Cc3cc(C#CCCN4CCOCC4)ccc32)cc1` (stereo not drawn) [Example 276, 4-(4-Methoxy-phenyl)-2-methyl-7-(4-morpholin-4-yl-but-1-ynyl)-1,2,3,4-tetrahydro-isoquinoline], the Ki was 86 nM in assay [2], 9 nM in assay [4] and 18 nM in assay [3] (read-out: Rat SERT Ki).

Take `COc1ccc(C2CN(C)Cc3cc(C#CCCN4CCSCC4)ccc32)cc1` (stereo not drawn) [Example 277, 4-(4-Methoxy-phenyl)-2-methyl-7-(4-thiomorpholin-4-yl-but-1-ynyl)-1,2,3,4-tetrahydro-isoquinoline]: the Ki stood at 45 nM in assay [2], 13 nM in assay [4] and 37 nM in assay [3] (read-out: Rat SERT Ki).

Take `COc1ccc(C2CN(C)Cc3cc(C#CCCN4CCN(C(C)C)CC4)ccc32)cc1` (stereo not drawn) [Example 278, 7-[4-(4-Isopropyl-piperazin-1-yl)-but-1-ynyl]-4-(4-methoxy-phenyl)-2-methyl-1,2,3,4-tetrahydro-isoquinoline]: the values for the Ki in assay [2], in assay [4] and in assay [3] (read-out: Rat SERT Ki) were 315 nM, 9 nM and 5 nM, respectively.

Consider `COc1ccc(C2CN(C)Cc3cc(CCCCN4CCC(F)(F)CC4)ccc32)cc1` (stereo not drawn) [Example 280, 7-[4-(4,4-Difluoro-piperidin-1-yl)-butyl]-4-(4-methoxy-phenyl)-2-methyl-1,2,3,4-tetrahydro-isoquinoline], for which the inhibitory constant (Ki) in assay [2] stood at 96 nM; in assay [4], 13 nM; in assay [3] (read-out: Rat SERT Ki) it was 4 nM.

Regarding `COc1ccc(C2CN(C)Cc3cc(CCCCN4CCOCC4)ccc32)cc1` (stereo not drawn) [Example 281, 4-(4-Methoxy-phenyl)-2-methyl-7-(4-morpholin-4-yl-butyl)-1,2,3,4-tetrahydro-isoquinoline], the results for the Ki in assay [2], in assay [4] and in assay [3] (read-out: Rat SERT Ki) were 23 nM, 8 nM and 6 nM, respectively.

Turning to `COc1ccc(C2CN(C)Cc3cc(CCCCN4CCSCC4)ccc32)cc1` (stereo not drawn) [Example 282, 4-(4-Methoxy-phenyl)-2-methyl-7-(4-thiomorpholin-4-yl-butyl)-1,2,3,4-tetrahydro-isoquinoline], the Ki worked out at 25 nM in assay [2], 17 nM in assay [4] and 6 nM in assay [3] (read-out: Rat SERT Ki).

For `COc1ccc(C2CN(C)Cc3cc(CCCCN4CCN(C(C)C)CC4)ccc32)cc1` (stereo not drawn) [Example 283, 7-[4-(4-Isopropyl-piperazin-1-yl)-butyl]-4-(4-methoxy-phenyl)-2-methyl-1,2,3,4-tetrahydro-isoquinoline], the Ki in assay [2] was 13 nM; in assay [4], 7 nM; in assay [3] (read-out: Rat SERT Ki), 4 nM.

One may read the Ki as the dissociation constant of the complex between target and ligand, obtained from inhibition or displacement.
